Results: ChEMBL document CHEMBL4118227, “Hexahydrobenzophenanthridine alkaloids from Corydalis bungeana Turcz. and their anti-inflammatory activity” (Bioorg Med Chem Lett, 2018)

system: RAW264.7; assay: Antiinflammatory activity against mouse RAW264.7 cells assessed as inhibition of LPS induced nitric oxide production preincubated for 2 hrs followed by LPS challenge measured after 24 hrs by Griess reagent based assay; assay type: functional, cell-based

**Q.** `COC(=O)C[C@H]1c2c(ccc3c2OCO3)[C@@]2(C)[C@@H](OC(C)=O)Cc3cc4c(cc3[C@H]2N1C)OCO4` was tested. Which IC50 did it give?
**A.** 2030 nM

**Q.** For `CN1Cc2c(ccc3c2OCO3)[C@@]2(C)[C@@H](O)Cc3cc4c(cc3[C@@H]12)OCO4`, which IC50 is on record?
**A.** 2510 nM

**Q.** `CC(=O)O[C@H]1Cc2cc3c(cc2[C@H]2[C@@]1(C)c1ccc4c(c1C[N@@+]2(C)[O-])OCO4)OCO3` was tested. Which IC50 did it give?
**A.** 33800 nM

**Q.** With `COC(=O)C[C@H]1c2c(ccc3c2OCO3)[C@@]2(C)[C@@H](OC(C)=O)Cc3cc4c(cc3[C@@H]2N1C)OCO4` as the compound, how does the IC50 read?
**A.** 2190 nM

**Q.** How did the IC50 turn out when `C[C@@]12c3ccc4c(c3C[N@@+](C)([O-])[C@H]1c1cc3c(cc1C[C@@H]2O)OCO3)OCO4` was run?
**A.** 2790 nM

**Q.** How did the IC50 turn out when `CC(=O)O[C@H]1Cc2cc3c(cc2[C@@H]2[C@@]1(C)c1ccc4c(c1C[N@@+]2(C)[O-])OCO4)OCO3` was run?
**A.** 2260 nM

**Q.** `CC(=O)O[C@H]1Cc2cc3c(cc2[C@H]2N(C)Cc4c(ccc5c4OCO5)[C@@]12C)OCO3` was tested. Which IC50 did it give?
**A.** 23100 nM

**Q.** With `CC(=O)O[C@H]1Cc2cc3c(cc2[C@@H]2N(C)Cc4c(ccc5c4OCO5)[C@@]12C)OCO3` as the compound, how does the IC50 read?
**A.** 1000 nM

**Q.** Which IC50 does the source give for `COc1cc2c(cc1O)C1Cc3ccc4c(c3CN1CC2)OCO4` (stereo not given) [CHEILANTHIFOLINE] here?
**A.** 1880 nM

**Q.** How did the IC50 turn out when `CN(C)c1ccc(O)c2c1C[C@H]1C[C@H]3[C@H](N(C)C)C(O)=C(C(N)=O)C(=O)[C@@]3(O)C(O)=C1C2=O` [MINOCYCLINE] was run?
**A.** 31300 nM
